Usually inhibition stands for how much of the control response was suppressed.

Assay [1] deals with CT-DNA. Put plainly: DNA Thermal Denaturation Studies. In kind it is binding. Particulars: 1:5 molar ratio [PBD]/[DNA], CT-DNA 100 µM, ligand 20 µM, 10 mM sodium phosphate + 1 mM EDTA, pH 7.00. The procedure: For CT-DNA alone at pH 7.00 ± 0.01, Tm = 69.8 °C ± 0.01 (mean value from 10 separate determinations), all ΔTm values are ± 0.1 - 0.2 °C. For a 1:5 molar ratio of [PBD]/[DNA], where CT-DNA concentration = 100 µM and ligand concentration = 20 µM in aqueous sodium phosphate buffer [10 mM sodium phosphate + 1 mM EDTA, pH 7.00 ± 0.01].

The subject of assay [2] is A-549. Put plainly: In vitro cytotoxicity against human cancer cell lines (sulforhodamine B). The format is cell-based. Particulars: A549, A-549 (lung), 48 hours, read-out: percentage growth inhibition; for inhibition at 100 µM: 10^-4 mol/L. The procedure: (§1) In vitro cytotoxicity against human cancer cell lines: The human cancer cell lines procured from National Cancer Institute, Frederick, U.S.A or National Center for Cell Science; Pune, India. were used in present study. Cells were grown in tissue culture flasks in complete growth medium (RPMI-1640 medium with 2 mM glutamine, 100 µg/ml streptomycin, pH 7.4, sterilized by filtration and supplemented with 10% fetal calf serum and 100 units/ml penicillin before use) at 37°C in an atmosphere of 5% CO2 and 90% relative humidity in a carbon dioxide incubator. The cells at subconfluent stage were harvested from the flask by treatment with trypsin (0.5% in PBS containing 0.02% EDTA) for determination of cytotoxicity. Cells with viability of more than 98% as determined by trypan blue exclusion were used for assay. The cell suspension of the required cell density were prepared in complete growth medium with gentamycin (50µg/ml) for determination of cytotoxicity.
(§2) A stock solutions of (2 X 10^-2 M) of test material were prepared in DMSO . The stock solutions were serially diluted with complete growth medium containing 50µg/ml of gentamycin to obtain working test solutions of required concentrations.
(§3) In vitro cytotoxicity against human cancer cell lines was determined (Monks, A., Scudiero, D., Skehan, P, Shoemaker R, Paull, K., Vistica, D., Hose, C., Langley, J., Cronise, P., Vaigro-Wolff, A., Gray-Goodrich, M.; Campbell,H., Mayo, J and Boyd M. J. Natl. Cancer Inst.,1991,83, 757-766) using 96-well tissue culture plates. The 100 µl of cell suspension was added to each well of the 96-well tissue culture plate. The cells were incubated for 24 hours. Test materials in complete growth medium (100µl) were added after 24 hours incubation to the wells containing cell suspension. The plates were further incubated for 48 hours (at 37°C in an atmosphere of 5% and 90% relative humidity in a carbon dioxide incubator) after addition of test material and then the cell growth was stopped by gently layering trichloroacetic acid (TCA, 50µl, 50%) on top of the medium in all the wells. The plates were incubated at 4°C for one hour to fix the cells attached to the bottom of the wells. The liquid of all the wells was gently pipetted out and discarded. The plates were washed five times with distilled water to remove TCA, growth medium low molecular weight metabolites, serum proteins etc and air-dried. Cell growth was measured by staining with sulforhodamine B dye (Skehan et al., 1990). The adsorbed dye was dissolved in Tris-Buffer ([…], 0.01M, pH 10.4) and plates were gently stirred for 5 minutes on a mechanical stirrer. The optical density was recorded on ELISA reader at 540 nm.
(§4) The cell growth was calculated by subtracting mean OD value of respective blank from the mean OD value of experimental set. Percent growth in presence of test material was calculated considering the growth in absence of any test material as 100% and in turn percent growth inhibition in presence of test material will be calculated.

Assay [3] concerns HCT-15. The assay is described as above. The note with it: HCT-15 (colon), 48 hours, read-out: percentage growth inhibition; for inhibition at 10 µM: 10^-5 mol/L; for inhibition at 1 µM: 10^-6 mol/L. In kind it is cell-based. The procedure:
as §1, §2, §3, §4

For assay [4], the system named is HT-29. Described as above. The note with it: HT-29 (colon), 48 hours, read-out: percentage growth inhibition; for inhibition at 100 µM: 10^-4 mol/L; for inhibition at 10 µM: 10^-5 mol/L; for inhibition at 1 µM: 10^-6 mol/L. In kind it is cell-based. The procedure:
as §1, §2, §3, §4

Assay [5] has as its system SiHa. Described as above. The format is cell-based. Particulars: SiHa (cervix), 48 hours, read-out: percentage growth inhibition; for inhibition at 100 µM: 10^-4 mol/L; for inhibition at 10 µM: 10^-5 mol/L; for inhibition at 1 µM: 10^-6 mol/L. As for the experimental part: as §1, §2, §3, §4
The test system of assay [6] is HOP-62. Described as above. Particulars: HOP-62 (lung), 48 hours, read-out: percentage growth inhibition; for inhibition at 10 µM: 10^-5 mol/L; for inhibition at 1 µM: 10^-6 mol/L. In kind it is cell-based. The procedure: as §1, §2, §3, §4

As to `COc1cc2c(cc1OCCCCN1CCN(CCCCN3C(=O)c4cccc5cccc(c45)C3=O)CC1)N=C[C@@H]1CCCN1C2=O` [VIIIe, 7-Methoxy-8-{4-[4-[4-(1,3-dioxo-benz[de]isoquinolin-2-yl)butyl]piperazin-1-yl]butyl}-oxy-(11aS)-1,2,3,11a tetrahydro-5H-pyrrolo [2,1-c][1,4]benzodiazepin-5-one], the “Induced […]Tm °C after incubation at 37 °C” value in assay [1] (0 h incubation at 37 °C) worked out at 20.9 °C; in assay [1] (18 h incubation at 37 °C) it was 21.7 °C. Also, the values for the inhibition at 100 µM in assay [2], in assay [4] and in assay [5] were 93%, 92% and 42%, respectively. Also, the inhibition at 10 µM in assay [3] worked out at 62%; in assay [4], 78%; in assay [5] it was 40%; in assay [6] it was 93%. Besides, the inhibition at 1 µM turned out to be 59% in assay [3], 67% in assay [4], 44% in assay [5] and 80% in assay [6].

Take `COc1cc2c(cc1OCCCN1CCN(CCN3C(=O)c4cccc5cccc(c45)C3=O)CC1)N=C[C@@H]1CCCN1C2=O` [VIIIb, 7-Methoxy-8-{3-[4-[2-(1,3-dioxo-benz[de]isoquinolin-2-yl)ethyl]piperazin-1-yl]propyl}-oxy-(11aS)-1,2,3,11a tetrahydro-5H-pyrrolo [2,1-c][1,4]benzodiazepin-5-one]: the “Induced […]Tm °C after incubation at 37 °C” value in assay [1] (0 h incubation at 37 °C) stood at 25.8 °C; in assay [1] (18 h incubation at 37 °C), 26.7 °C. Moreover, the inhibition at 100 µM in assay [2] and in assay [4] was 88% each time. Further, the inhibition at 10 µM in assay [3] amounted to 59%; in assay [4] it was 85%; in assay [5], 44%; in assay [6], 86%. In addition, the inhibition at 1 µM in assay [3] turned out to be 58%; in assay [4] it was 91%; in assay [5] it was 54%; in assay [6], 72%.

As for `COc1cc2c(cc1OCCCN1CCN(CCCN3C(=O)c4cccc5cccc(c45)C3=O)CC1)N=C[C@@H]1CCCN1C2=O` [VIIId, 7-Methoxy-8-{3-[4-[3-(1,3-dioxo-benz[de]isoquinolin-2-yl)propyl]piperazin-1-yl]propyl}-oxy-(11aS)-1,2,3,11a tetrahydro-5H-pyrrolo [2,1-c][1,4]benzodiazepin-5-one], the “Induced […]Tm °C after incubation at 37 °C” value was found to be 13.1 °C in assay [1] (0 h incubation at 37 °C) and 14.3 °C in assay [1] (18 h incubation at 37 °C). Besides, the inhibition at 100 µM in assay [2] was 95%; in assay [4], 95%; in assay [5], 85%; in assay [6] (10^-4 mol/L), 78%. In addition, the inhibition at 10 µM is 30% in assay [2] (10^-5 mol/L), 62% in assay [4] and 65% in assay [5]. In addition, the inhibition at 1 µM in assay [2] (10^-6 mol/L) was 51%; in assay [4] it was 63%; in assay [5], 31%.

Turning to `COc1cc2c(cc1O)N=CC1CCCN1C2=O` (centres unmarked) [DC-81, reference compound], the “Induced […]Tm °C after incubation at 37 °C” value worked out at 0.3 °C in assay [1] (0 h incubation at 37 °C) and 0.7 °C in assay [1] (18 h incubation at 37 °C).

As to `COc1cc2c(cc1OCCN1CCN(CCN3C(=O)c4cccc5cccc(c45)C3=O)CC1)N=C[C@@H]1CCCN1C2=O` [VIIIa, 7-Methoxy-8-{2-[4-[2-(1,3-dioxo-benz[de]isoquinolin-2-yl)ethyl]piperazin-1=yl]ethyl}-oxy-(11aS)-1,2,3,11a tetrahydro-5H-pyrrolo [2,1-c][1,4]benzodiazepin-5-one], the “Induced […]Tm °C after incubation at 37 °C” value is 21.9 °C in assay [1] (0 h incubation at 37 °C) and 22.7 °C in assay [1] (18 h incubation at 37 °C).

In the case of `COc1cc2c(cc1OCCCCN1CCN(CCN3C(=O)c4cccc5cccc(c45)C3=O)CC1)N=C[C@@H]1CCCN1C2=O` [VIIIc, 7-Methoxy-8-{4-[4-[2-(1,3-dioxo-benz[de]isoquinolin-2-yl)ethyl]piperazin-1-yl]butyl}-oxy-(11aS)-1,2,3,11a tetrahydro-5H-pyrrolo [2,1-c][1,4]benzodiazepin-5-one], the “Induced […]Tm °C after incubation at 37 °C” value in assay [1] (0 h incubation at 37 °C) is 23.4 °C; in assay [1] (18 h incubation at 37 °C), 24.2 °C. Also, the figures for the inhibition at 100 µM in assay [2], in assay [4] and in assay [5] were 95%, 94% and 56%, respectively. Further, the inhibition at 10 µM in assay [3] was found to be 69%; in assay [4], 86%; in assay [5], 39%; in assay [6], 93%. The inhibition at 1 µM in assay [3] came to 60%; in assay [4], 80%; in assay [6], 86%.

These data come from patent EP1761537B1, “PYRROLO[2,1-C][1,4]BENZODIAZEPINE-NAPTHALIMIDE […] THROUGH […] AND PROCESS FOR PREPARATION THEREOF” (Council of Scientific and Industrial Research, priority 2004, dated 2006).
